One test has as its target T1, KRASwt (Homo sapiens, UniProt P01116).
T1 construct: made in house; host or cells: E. coli BL21 (DE3)
Briefly: Bio-Biochem-PPI-HTRF Ras-SOS1 interaction assay (KRAS wt). The test is classed as biochemical. The following applies: 5 nM. The procedure, abridged:
(§1)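 Compounds tested in duplicate (10 μM to 0.01 μM) for disruption of His-hSOS1 binding to GST-tagged wild-type or G12D K-Ras in HEPES pH 7.4 buffer. TR-FRET read (Eu donor, XL665 acceptor) after about 10 min or longer; IC50 derived from the 665/620 nm emission ratio.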
In general terms: In TR-FRET formats the signal depends on donor and acceptor labels being close together.

In the next test the target is T2, KRASG12D (Homo sapiens, UniProt P01116, G12D).
T2 construct: made in house; host or cells: E. coli BL21 (DE3)
Briefly: Bio-Biochem-PPI-HTRF Ras-SOS1 interaction assay (KRAS G12D). In kind it is biochemical. The following applies: 5 nM. The procedure, abridged:
as §1

T2 sequence (P01116 1-188 isoform P01116-2 G12D): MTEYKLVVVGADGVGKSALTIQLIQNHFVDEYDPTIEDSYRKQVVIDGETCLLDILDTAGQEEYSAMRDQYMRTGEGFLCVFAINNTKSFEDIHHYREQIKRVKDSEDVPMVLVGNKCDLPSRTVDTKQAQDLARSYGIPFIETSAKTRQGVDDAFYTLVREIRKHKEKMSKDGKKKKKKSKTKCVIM
T1 sequence (P01116 1-188 isoform P01116-2): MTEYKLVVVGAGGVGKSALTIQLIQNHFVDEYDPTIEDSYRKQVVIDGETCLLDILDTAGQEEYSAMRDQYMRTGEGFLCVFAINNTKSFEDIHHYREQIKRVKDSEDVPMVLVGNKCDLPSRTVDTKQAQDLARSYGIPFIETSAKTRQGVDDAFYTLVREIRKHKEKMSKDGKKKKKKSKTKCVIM

What is called IC50 is the concentration needed to halve the response being measured. The low end stands for greater potency, the high end for weaker potency. Take `N#Cc1c(N)sc2c(F)ccc(-c3c(Cl)cc4c(N5CCOCC6(CN(C(=O)[C@H]7CC7(F)F)C6)C5)nc(OC[C@@]56CCCN5C[C@H](F)C6)nc4c3F)c12` [compound 247, 2-amino-4-(6-chloro-4-(2-((R)-2,2-difluorocyclopropane-1-carbonyl)-6-oxa-2,9-diazaspiro[3.6]decan-9-yl)-8-fluoro-2-(((2R,7aS)-2-fluorotetrahydro-1H-pyrrolizin-7a(5H)-yl)methoxy)quinazolin-7-yl)-7-fluorobenzo[b]thiophene-3-carbonitrile]: the IC50 on KRASwt and against KRASG12D was less than 5 µM each time.

As to `Nc1nc2c(-c3c(Cl)cc4c(N5CCC6(CC5)CN(C(=O)c5nc[nH]n5)C6)nc(OC[C@@]56CCCN5C[C@H](F)C6)nc4c3F)ccc(F)c2s1` [compound 248, (7-(7-(2-amino-7-fluorobenzo[d]thiazol-4-yl)-6-chloro-8-fluoro-2-(((2R,7aS)-2-fluorotetrahydro-1H-pyrrolizin-7a(5H)-yl)methoxy)quinazolin-4-yl)-2,7-diazaspiro[3.5]nonan-2-yl) (1H-1,2,4-triazol-3-yl)methanone], the IC50 on KRASwt and against KRASG12D was less than 5 µM in each case.

As to `N#Cc1c(N)sc2c(F)ccc(-c3c(Cl)cc4c(N5CCC(O)CC6(CN(C(=O)[C@@H]7CC7(F)F)C6)C5)nc(OC[C@@]56CCCN5C[C@H](F)C6)nc4c3F)c12` (stereo partly drawn) [compound 249, 2-amino-4-(6-chloro-4-(2-((S)-2,2-difluorocyclopropane-1-carbonyl)-9-hydroxy-2,6-diazaspiro[3.6]decan-6-yl)-8-fluoro-2-(((2R,7aS)-2-fluorotetrahydro-1H-pyrrolizin-7a(5H)-yl)methoxy)quinazolin-7-yl)-7-fluorobenzo[b]thiophene-3-carbonitrile], the IC50 on KRASwt and against KRASG12D was less than 5 µM throughout.

`N#Cc1c(N)sc2c(F)ccc(-c3c(Cl)cc4c(N5CCCCC6(CN(C(=O)N7CC(F)C7)C6)C5)nc(OC[C@@]56CCCN5C[C@H](F)C6)nc4c3F)c12` [compound 250, 2-amino-4-(6-chloro-8-fluoro-4-(2-(3-fluoroazetidine-1-carbonyl)-2,6-diazaspiro[3.6]decan-6-yl)-2-(((2R,7aS)-2-fluorotetrahydro-1H-pyrrolizin-7a(5H)-yl)methoxy)quinazolin-7-yl)-7-fluorobenzo[b]thiophene-3-carbonitrile]: the IC50 against KRASwt and against KRASG12D was less than 5 µM in each case.

Regarding `N#Cc1c(N)sc2c(F)ccc(-c3c(Cl)cc4c(N5CCCCC6(CN(C(=O)C(F)Cl)C6)C5)nc(OC[C@@]56CCCN5C[C@H](F)C6)nc4c3F)c12` (stereo partly drawn) [compound 251, 2-amino-4-(6-chloro-4-(2-(2-chloro-2-fluoroacetyl)-2,6-diazaspiro [3.6]decan-6-yl)-8-fluoro-2-(((2R,7aS)-2-fluorotetrahydro-1H-pyrrolizin-7a(5H)-yl)methoxy)quinazolin-7-yl)-7-fluorobenzo[b]thiophene-3-carbonitrile], the IC50 against KRASwt and against KRASG12D was less than 5 µM in each case.

On to `N#Cc1c(N)sc2c(F)ccc(-c3c(Cl)cc4c(N5CCOC6(CN(C(=O)C7(C(F)F)COC7)C6)C5)nc(OC[C@@]56CCCN5C[C@H](F)C6)nc4c3F)c12` [compound 252, 2-amino-4-(6-chloro-4-(2-(3-(difluoromethyl)oxetane-3-carbonyl)-5-oxa-2,8-diazaspiro[3.5]nonan-8-yl)-8-fluoro-2-(((2R,7aS)-2-fluorotetrahydro-1H-pyrrolizin-7a(5H)-yl)methoxy)quinazolin-7-yl)-7-fluorobenzo[b]thiophene-3-carbonitrile], for which the half-inhibitory concentration (IC50) on KRASwt and on KRASG12D was less than 5 µM throughout.

On to `N#Cc1c(N)sc2c(F)ccc(-c3c(Cl)cc4c(N5CCCCC6(CN(C(=O)C7(F)CC7)C6)C5)nc(OC[C@@]56CCCN5C[C@H](F)C6)nc4c3F)c12` [compound 253, 2-amino-4-(6-chloro-8-fluoro-4-(2-(1-fluorocyclopropane-1-carbonyl)-2,6-diazaspiro[3.6]decan-6-yl)-2-(((2R,7aS)-2-fluorotetrahydro-1H-pyrrolizin-7a(5H)-yl)methoxy)quinazolin-7-yl)-7-fluorobenzo[b]thiophene-3-carbonitrile], for which the IC50 at KRASwt and on KRASG12D was less than 5 µM in each case.

Regarding `N#Cc1c(N)sc2c(F)ccc(-c3c(Cl)cc4c(N5CCC(C(F)F)CC6(CN(C(=O)[C@@H]7CC7(F)F)C6)C5)nc(OC[C@@]56CCCN5C[C@H](F)C6)nc4c3F)c12` (stereo partly drawn) [compound 254, 2-amino-4-(6-chloro-4-(2-((S)-2,2-difluorocyclopropane-1-carbonyl)-9-(difluoromethyl)-2,6-diazaspiro[3.6]decan-6-yl)-8-fluoro-2-(((2R,7aS)-2-fluorotetrahydro-1H-pyrrolizin-7a(5H)-yl)methoxy)quinazolin-7-yl)-7-fluorobenzo[b]thiophene-3-carbonitrile], the IC50 on KRASwt and against KRASG12D was less than 5 µM throughout.

Turning to `N#Cc1c(N)sc2c(F)ccc(-c3c(Cl)cc4c(N5CCCCC6(CN(CC7CC7(F)F)C6)C5)nc(OC[C@@]56CCCN5C[C@H](F)C6)nc4c3F)c12` (stereo partly drawn) [compound 255, 2-amino-4-(6-chloro-4-(2-((2,2-difluorocyclopropyl)methyl)-2,6-diazaspiro[3.6]decan-6-yl)-8-fluoro-2-(((2R,7aS)-2-fluorotetrahydro-1H-pyrrolizin-7a(5H)-yl)methoxy)quinazolin-7-yl)-7-fluorobenzo[b]thiophene-3-carbonitrile], the IC50 against KRASwt and at KRASG12D was less than 5 µM each time.

Take `COc1nc(N2CCCCC3(CN(C(C)=O)C3)C2)c2cc(Cl)c(-c3ccc(F)c4sc(N)c(C#N)c34)c(F)c2n1` [compound 256, 4-(4-(2-acetyl-2,6-diazaspiro[3.6]decan-6-yl)-6-chloro-8-fluoro-2-methoxyquinazolin-7-yl)-2-amino-7-fluorobenzo[b]thiophene-3-carbonitrile]: the IC50 against KRASwt and against KRASG12D was less than 5 µM each time.

On to `N#Cc1c(N)sc2c(F)ccc(-c3c(Cl)cc4c(N5CCOC6(CN(C(=O)N7CC(C#N)C7)C6)C5)nc(OC[C@@]56CCCN5C[C@H](F)C6)nc4c3F)c12` [compound 257, 1-(8-(7-(2-amino-3-cyano-7-fluorobenzo[b]thiophen-4-yl)-6-chloro-8-fluoro-2-(((2R,7aS)-2-fluorotetrahydro-1H-pyrrolizin-7a(5H)-yl)methoxy)quinazolin-4-yl)-5-oxa-2,8-diazaspiro[3.5]nonane-2-carbonyl)azetidine-3-carbonitrile], for which the IC50 against KRASwt and on KRASG12D was less than 5 µM in each case.

As to `COc1cc(C(=O)N2CC3(CCCCN(c4nc(OC[C@@]56CCCN5C[C@H](F)C6)nc5c(F)c(-c6ccc(F)c7sc(N)c(C#N)c67)c(Cl)cc45)C3)C2)n(C)n1` [compound 258, 2-amino-4-(6-chloro-8-fluoro-2-(((2R,7aS)-2-fluorotetrahydro-1H-pyrrolizin-7a(5H)-yl)methoxy)-4-(2-(3-methoxy-1-methyl-1H-pyrazole-5-carbonyl)-2,6-diazaspiro[3.6]decan-6-yl)quinazolin-7-yl)-7-fluorobenzo[b]thiophene-3-carbonitrile], the IC50 against KRASwt and at KRASG12D was less than 5 µM throughout.

Regarding `N#Cc1c(N)sc2c(F)ccc(-c3c(Cl)cc4c(N5CCCCC6(CN(C(=O)C[C@@H]7CCOC7)C6)C5)nc(OC[C@@]56CCCN5C[C@H](F)C6)nc4c3F)c12` [compound 259, 2-amino-4-(6-chloro-8-fluoro-2-(((2R,7aS)-2-fluorotetrahydro-1H-pyrrolizin-7a(5H)-yl)methoxy)-4-(2-(2-((S)-tetrahydrofuran-3-yl)acetyl)-2,6-diazaspiro[3.6]decan-6-yl)quinazolin-7-yl)-7-fluorobenzo[b]thiophene-3-carbonitrile], the IC50 at KRASwt and against KRASG12D was less than 5 µM each time.

Take `C#Cc1c(F)ccc2cc(O)cc(-c3ccc4c(N5CCCCC6(CN(C(=O)[C@@H]7CC7(F)F)C6)C5)nc(OC[C@@]56CCCN5C[C@H](F)C6)nc4c3F)c12` [compound 260, ((S)-2,2-difluorocyclopropyl) (6-(7-(8-ethynyl-7-fluoro-3-hydroxynaphthalen-1-yl)-8-fluoro-2-(((2R,7aS)-2-fluorotetrahydro-1H-pyrrolizin-7a(5H)-yl)methoxy)quinazolin-4-yl)-2,6-diazaspiro[3.6]decan-2-yl)methanone]: the IC50 on KRASwt and on KRASG12D was less than 5 µM throughout.

On to `N#Cc1c(N)sc2c(F)ccc(-c3c(Cl)cc4c(N5CCCCC6(CN(C(=O)C7CC7C7CC7)C6)C5)nc(OC[C@@]56CCCN5C[C@H](F)C6)nc4c3F)c12` (stereo partly drawn) [compound 261, 4-(4-(2-([1,1′-bi (cyclopropane)]-2-carbonyl)-2,6-diazaspiro[3.6]decan-6-yl)-6-chloro-8-fluoro-2-(((2R,7aS)-2-fluorotetrahydro-1H-pyrrolizin-7a(5H)-yl)methoxy)quinazolin-7-yl)-2-amino-7-fluorobenzo[b] thiophene-3-carbonitrile], for which the IC50 against KRASwt and against KRASG12D was less than 5 µM throughout.

`N#Cc1c(N)sc2c(F)ccc(-c3c(Cl)cc4c(N5CCCCC6(CN(C(=O)[C@@H]7C[C@H]7C#N)C6)C5)nc(OC[C@@]56CCCN5C[C@H](F)C6)nc4c3F)c12` [compound 263, 2-amino-4-(6-chloro-4-(2-((1R,2R)-2-cyanocyclopropane-1-carbonyl)-2,6-diazaspiro[3.6]decan-6-yl)-8-fluoro-2-(((2R,7aS)-2-fluorotetrahydro-1H-pyrrolizin-7a(5H)-yl)methoxy)quinazolin-7-yl)-7-fluorobenzo[b]thiophene-3-carbonitrile]: the IC50 against KRASwt and against KRASG12D was less than 5 µM throughout.
